Values of other authors in US7041008B2, “Golf ball with sulfur cured inner component” (priority 1993, dated 2006).

| Compound | Acute oral LD50 |
| --- | --- |
| CC1CC(C)(C)CC(OOC(C)(C)C)(OOC(C)(C)C)C1 (stereo not drawn) [1,1-bis(t-butylperoxy)-3,3,5-trimethyl cyclohexane] | >13,000 mg/kg |
| 2,2′-bis(t-butylperoxy)-di-iso-propylbenzene | >23,000 mg/kg |
| O=C1CCCCCN1SSN1CCCCCC1=O [N,N′-caprolactum disulfide] | 3,620 mg/kg |
| CCCCOC(=O)CCC(C)(OOC(C)(C)C)OOC(C)(C)C [n-butyl 4,4-bis(t-butyl-peroxy) valerate] | 5,000 mg/kg |
| CC(C)(C)OOC(=O)c1ccccc1 [t-butyl perbenzoate] | >3,600 mg/kg |
| CC(C)(OOC(C)(C)c1ccccc1)c1ccccc1 [dicumyl peroxide] | 4,100 mg/kg |
| CC(C)(C)OOC(C)(C)CCC(C)(C)OOC(C)(C)C [2,5-dimethyl-2,5-di(t-butylperoxy) hexane] | >32,000 mg/kg |
| O=C(OOC(=O)c1ccccc1)c1ccccc1 [benzoyl peroxide] | >5,000 mg/kg |
| C1CN(SSN2CCOCC2)CCO1 [4,4″-dithiodimorpholine] | 5,600 mg/kg |
